Laboratory results from patent US8785429B2, “Dihydropyrrolonaphthyridinone compounds as inhibitors of JAK” (Takeda Pharmaceutical Company Limited, priority 2009, dated 2014).

Legend:
JAK2 = biological target: T1, JAK2 (Homo sapiens, UniProt O60674); experiment: Assay for JAK2 Inhibition (phosphorylation of FAM-labeled substrate, Caliper LC-3000); format: biochemical; conditions: −log10(IC50), IC50 is the molar concentration at 50% inhibition; read-out: JAK2 pIC50 (converted)
T1 construct: purchased Invitrogen
T1 sequence (O60674 whole entry): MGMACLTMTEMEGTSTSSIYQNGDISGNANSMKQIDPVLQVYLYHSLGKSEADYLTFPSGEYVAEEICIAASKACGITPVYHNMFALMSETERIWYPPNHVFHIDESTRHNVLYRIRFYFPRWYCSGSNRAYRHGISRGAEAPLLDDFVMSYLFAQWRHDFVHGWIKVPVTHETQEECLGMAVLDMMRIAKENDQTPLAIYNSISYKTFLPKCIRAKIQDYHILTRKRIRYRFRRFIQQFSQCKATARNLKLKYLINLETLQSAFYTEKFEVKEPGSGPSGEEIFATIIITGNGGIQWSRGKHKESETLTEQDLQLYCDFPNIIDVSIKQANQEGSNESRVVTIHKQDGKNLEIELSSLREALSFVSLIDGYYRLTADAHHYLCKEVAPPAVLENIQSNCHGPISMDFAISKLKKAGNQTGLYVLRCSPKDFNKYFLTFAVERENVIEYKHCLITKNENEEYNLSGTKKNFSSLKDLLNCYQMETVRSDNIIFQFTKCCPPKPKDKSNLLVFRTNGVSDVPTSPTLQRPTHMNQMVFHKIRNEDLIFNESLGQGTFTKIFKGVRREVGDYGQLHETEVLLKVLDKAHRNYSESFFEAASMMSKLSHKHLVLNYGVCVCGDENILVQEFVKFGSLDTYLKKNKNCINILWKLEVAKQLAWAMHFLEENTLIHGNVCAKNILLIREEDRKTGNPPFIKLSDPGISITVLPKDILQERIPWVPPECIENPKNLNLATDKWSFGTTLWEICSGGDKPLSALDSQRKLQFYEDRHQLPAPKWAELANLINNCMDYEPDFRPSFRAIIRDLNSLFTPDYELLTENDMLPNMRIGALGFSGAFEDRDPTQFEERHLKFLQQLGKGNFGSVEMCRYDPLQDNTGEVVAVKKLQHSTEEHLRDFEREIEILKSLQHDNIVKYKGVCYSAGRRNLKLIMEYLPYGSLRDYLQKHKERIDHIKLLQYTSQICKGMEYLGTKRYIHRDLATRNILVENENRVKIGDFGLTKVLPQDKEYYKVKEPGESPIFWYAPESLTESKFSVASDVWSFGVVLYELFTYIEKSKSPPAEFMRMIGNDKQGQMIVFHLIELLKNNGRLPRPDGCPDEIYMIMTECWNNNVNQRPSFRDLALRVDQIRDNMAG
Protocol: (§1) A compound's ability to inhibit JAK activity may be assessed using a variety of methods, including in vitro and in vivo assays. The following in vitro assays measure a test compound's ability to inhibit JAK2- and JAK3-mediated phosphorylation of FAM-labeled JAK-specific substrates.
(§2) Purified JAK2 and JAK3 proteins were purchased from Invitrogen. JAK2 and JAK3 inhibition is determined using a black 384-well-plate format in buffer containing 50 mM HEPES, 10 mM NaCl, 10 mM MgCl2, 0.2 mM EDTA, 0.01% EDA (Brij® 35), 1 mM DTT, 0.1 mg/mL BSA at pH 7.3. Each test compound is prepared in DMSO using 2-fold serial dilutions for 11 data points and is added to the buffer so that each dilution contains 3% DMSO.
(§3) To each well is added 2 μL of 3 μM 5FAM-KKKKEEIYFFFG-NH2 and 45 μM ATP (in buffer), 2 μL of diluted test compound (3% DMSO in medium), and 2 μL of 0.6 nM JAK2 in buffer. The reaction mixture is incubated at room temperature for 60 min and is quenched by adding 50 mM HEPeX, 30 mM EDTA, and 0.1% Tx-100 (pH 7.3). To quantify the fluorescent-labeled substrate and product following reaction, the test plate is loaded on a Caliper LC-3000, which measures percent of conversion by microfluidic-based separation.
(§4) Corresponding IC50 values are calculated by non-linear curve fitting of the compound concentrations and percent of inhibition to the standard IC50 equation.

JAK3 = biological target: T2, JAK3 (Homo sapiens, UniProt P52333); experiment: Assay for JAK3 Inhibition (phosphorylation of FAM-labeled substrate, Caliper LC-3000); format: biochemical; conditions: −log10(IC50), IC50 is the molar concentration at 50% inhibition; read-out: JAK3 pIC50 (converted)
T2 construct: purchased Invitrogen
T2 sequence (P52333 1-1124): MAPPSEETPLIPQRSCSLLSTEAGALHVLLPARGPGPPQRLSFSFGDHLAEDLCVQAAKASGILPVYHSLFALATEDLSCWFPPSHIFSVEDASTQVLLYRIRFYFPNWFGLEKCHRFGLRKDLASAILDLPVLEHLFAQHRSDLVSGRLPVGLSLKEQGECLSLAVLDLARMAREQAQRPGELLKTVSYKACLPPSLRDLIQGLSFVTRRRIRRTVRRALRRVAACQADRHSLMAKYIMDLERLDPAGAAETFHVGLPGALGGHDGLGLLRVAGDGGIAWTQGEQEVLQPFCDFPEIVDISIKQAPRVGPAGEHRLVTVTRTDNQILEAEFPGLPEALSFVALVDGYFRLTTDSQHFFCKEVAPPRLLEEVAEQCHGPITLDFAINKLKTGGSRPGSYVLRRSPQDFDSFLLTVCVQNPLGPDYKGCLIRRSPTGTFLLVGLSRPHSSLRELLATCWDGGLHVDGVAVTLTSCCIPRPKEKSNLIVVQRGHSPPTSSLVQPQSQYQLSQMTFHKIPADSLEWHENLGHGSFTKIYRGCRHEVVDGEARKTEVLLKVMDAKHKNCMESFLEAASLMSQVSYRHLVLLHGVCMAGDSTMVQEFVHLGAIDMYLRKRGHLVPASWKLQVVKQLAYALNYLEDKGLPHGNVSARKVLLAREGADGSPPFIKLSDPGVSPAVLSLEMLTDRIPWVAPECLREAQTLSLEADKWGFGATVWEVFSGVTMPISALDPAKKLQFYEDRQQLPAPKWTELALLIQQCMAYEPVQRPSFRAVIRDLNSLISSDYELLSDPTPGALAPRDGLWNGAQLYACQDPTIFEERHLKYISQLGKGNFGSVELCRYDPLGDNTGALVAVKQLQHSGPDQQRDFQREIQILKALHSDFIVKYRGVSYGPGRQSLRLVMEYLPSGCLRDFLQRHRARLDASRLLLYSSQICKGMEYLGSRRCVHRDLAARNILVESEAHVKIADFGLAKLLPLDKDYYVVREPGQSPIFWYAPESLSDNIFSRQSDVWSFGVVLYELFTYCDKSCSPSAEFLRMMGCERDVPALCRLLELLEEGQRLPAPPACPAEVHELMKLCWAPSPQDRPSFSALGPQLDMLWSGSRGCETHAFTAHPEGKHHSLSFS
Protocol: as §1, §2
as §3, with “15” for “45”, “1.2” for “0.6”, “JAK3” for “JAK2”, “HEPES,” for “HEPeX,”
as §4

SMILES | IC50 (JAK2) [nM] | IC50 (JAK3) [nM]
O=C1c2ccnc3[nH]cc(c23)CN1C1CCNCC1 [Example 2, 4-(piperidin-4-yl)-3,4-dihydropyrrolo[4,3,2-de][2,6]naphthyridin-5(1H)-one] | 6310 | 3980
N#CCC(=O)N1CCC(N2Cc3c[nH]c4nccc(c34)C2=O)CC1 [Example 3, 3-oxo-3-(4-(5-oxopyrrolo[4,3,2-de][2,6]naphthyridin-4(1H,3H,5H)-yl)piperidin-1-yl)propanenitrile] | 794 | 1580
CC1(N2Cc3c[nH]c4nccc(c34)C2=O)CCN(C(=O)CC#N)CC1 [Example 6, 3-(4-methyl-4-(5-oxopyrrolo[4,3,2-de][2,6]naphthyridin-4(1H,3H,5H)-yl)piperidin-1-yl)-3-oxopropanenitrile] | 79.4 | 501
CCC1(N2Cc3c[nH]c4nccc(c34)C2=O)CCN(C(=O)CC#N)CC1 [Example 9, 3-(4-ethyl-4-(5-oxopyrrolo[4,3,2-de][2,6]naphthyridin-4(1H,3H,5H)-yl)piperidin-1-yl)-3-oxopropanenitrile] | 20 | 10
CCC(CC)N1Cc2c[nH]c3nccc(c23)C1=O [Example 10, 4-(pentan-3-yl)-3,4-dihydropyrrolo[4,3,2-de][2,6]naphthyridin-5(1H)-one] | 79.4 | 100
O=C1c2ccnc3[nH]cc(c23)CN1C(CCO)C1CC1 (stereo not drawn) [Example 11, 4-(1-cyclopropyl-3-hydroxypropyl)-3,4-dihydropyrrolo[4,3,2-de][2,6]naphthyridin-5(1H)-one] | 398 | 316
CC(C)(C)OC(=O)N1CCC(CN2Cc3c[nH]c4nccc(c34)C2=O)C1 (stereo not drawn) [Example 12, Tert-Butyl 3-((5-oxopyrrolo[4,3,2-de][2,6]naphthyridin-4(1H,3H,5H)-yl)methyl)pyrrolidine-1-carboxylate] | 3160 | 7940
O=C1c2ccnc3[nH]cc(c23)CN1CC1CCNC1 (stereo not drawn) [Example 13, 4-(pyrrolidin-3-ylmethyl)-3,4-dihydropyrrolo[4,3,2-de][2,6]naphthyridine-5(1H)-one] | 5010 | 3160
CCC(=O)N1CCC(CC)(N2Cc3c[nH]c4nccc(c34)C2=O)CC1 [Example 16, 4-(4-ethyl-1-propionylpiperidin-4-yl)-3,4-dihydropyrrolo[4,3,2-de][2,6]naphthyridin-5(1H)-one] | 10 | 50.1
CCC1(N2Cc3c[nH]c4nccc(c34)C2=O)CCN(c2ccncn2)CC1 [Example 17, 4-(4-ethyl-1-(pyrimidin-4-yl)piperidin-4-yl)-3,4-dihydropyrrolo[4,3,2-de][2,6]naphthyridin-5(1H)-one] | 5.01 | 12.6
CC[C@@H](C(=O)N1CCCC1)N1Cc2ccnc3[nH]cc(c23)C1=O [Example 18, (S)-4-(1-oxo-1-(pyrrolidin-1-yl)butan-2-yl)-4,5-dihydropyrrolo[4,3,2-de][2,6]naphthyridin-3(1H)-one] | 20000 | 20000
CC[C@H](C(=O)N1CCCC1)N1Cc2ccnc3[nH]cc(c23)C1=O [Example 19, (R)-4-(1-oxo-1-(pyrrolidin-1-yl)butan-2-yl)-4,5-dihydropyrrolo[4,3,2-de][2,6]naphthyridin-3(1H)-one] | 3980 | 316
CC(C)[C@H](C(=O)N1CCCC1)N1Cc2ccnc3[nH]cc(c23)C1=O [Example 20, (R)-4-(3-methyl-1-oxo-1-(pyrrolidin-1-yl)butan-2-yl)-4,5-dihydropyrrolo[4,3,2-de][2,6]naphthyridin-3(1H)-one] | 1580 | 79.4
CC(C)C[C@H](C(=O)N1CCCC1)N1Cc2ccnc3[nH]cc(c23)C1=O [Example 21, (R)-4-(4-methyl-1-oxo-1-(pyrrolidin-1-yl)pentan-2-yl)-4,5-dihydropyrrolo[4,3,2-de][2,6]naphthyridin-3(1H)-one] | 794 | 126
CC(C)[C@H](C(=O)NC1CCCC1)N1Cc2ccnc3[nH]cc(c23)C1=O [Example 22, (R)—N-cyclopentyl-3-methyl-2-(3-oxopyrrolo[4,3,2-de][2,6]naphthyridin-4(1H,3H,5H)-yl)butanamide] | 631 | 31.6
CC[C@@H](C)[C@H](C(=O)NC1CCCC1)N1Cc2ccnc3[nH]cc(c23)C1=O [Example 23, (2R,3R)—N-cyclopentyl-3-methyl-2-(3-oxopyrrolo[4,3,2-de][2,6]naphthyridin-4(1H,3H,5H)-yl)pentanamide] | 3980 | 398
CC[C@H](C)[C@H](C(=O)NC1CCCC1)N1Cc2ccnc3[nH]cc(c23)C1=O [Example 24, (2R,3S)—N-cyclopentyl-3-methyl-2-(3-oxopyrrolo[4,3,2-de][2,6]naphthyridin-4(1H,3H,5H)-yl)pentanamide] | 12600 | 1580
O=C(NC1CCCC1)[C@@H](C1CC1)N1Cc2ccnc3[nH]cc(c23)C1=O [Example 25, (R)—N-cyclopentyl-2-cyclopropyl-2-(3-oxopyrrolo[4,3,2-de][2,6]naphthyridin-4(1H,3H,5H)-yl)acetamide] | 1580 | 200
CC(C)(C)[C@H](C(=O)NC1CCCC1)N1Cc2ccnc3[nH]cc(c23)C1=O [Example 26, (R)—N-cyclopentyl-3,3-dimethyl-2-(3-oxopyrrolo[4,3,2-de][2,6]naphthyridin-4(1H,3H,5H)-yl)butanamide] | 126 | 10
O=C(NC1CCCC1)[C@@H](C1CCCC1)N1Cc2ccnc3[nH]cc(c23)C1=O [Example 27, (R)—N,2-dicyclopentyl-2-(3-oxopyrrolo[4,3,2-de][2,6]naphthyridin-4(1H,3H,5H)-yl)acetamide] | 3160 | 251
O=C(NC1CCCC1)[C@@H](CC(F)(F)F)N1Cc2ccnc3[nH]cc(c23)C1=O [Example 28, (R)—N-cyclopentyl-4,4,4-trifluoro-2-(3-oxopyrrolo[4,3,2-de][2,6]naphthyridin-4(1H,3H,5H)-yl)butanamide] | 10000 | 398
CC(C)(O)[C@H](C(=O)NC1CCCC1)N1Cc2ccnc3[nH]cc(c23)C1=O [Example 29, (R)—N-cyclopentyl-3-hydroxy-3-methyl-2-(3-oxopyrrolo[4,3,2-de][2,6]naphthyridin-4(1H,3H,5H)-yl)butanamide] | 3160 | 158
N#CC[C@H](C(=O)NC1CCCC1)N1Cc2c(Cl)cnc3[nH]cc(c23)C1=O [Example 30, (R)-2-(6-chloro-3-oxopyrrolo[4,3,2-de][2,6]naphthyridin-4(1H,3H,5H)-yl)-3-cyano-N-cyclopentylpropanamide] | 3160 | 1260
O=C1c2c[nH]c3nccc(c23)CN1C1(C(=O)NC2CCCC2)CCCC1 [Example 31, N-cyclopentyl-1-(3-oxopyrrolo[4,3,2-de][2,6]naphthyridin-4(1H,3H,5H)-yl)cyclopentanecarboxamide] | 20000 | 20000
